Target: (Homo sapiens, UniProt P43220)
Experiment: h-GLP-1 activity assay (cAMP HTRF, HEK293 cells with stable expression of human GLP-1)
Type: cell-based
Details: relative EC50, 10 nM human GLP-1 set as 100% response, 30 min at 37° C.
Experimental: Human GLP-1 agonizing activity was detected in HEK293 cells with stable expression of human GLP-1 by Cisbio cAMP Gs dynamic kit (Catalog #62AM4PEC) according to manufacturer's protocol. Briefly, cells were collected and resuspended in assay buffer containing 0.1% BSA and 0.5 mM of IBMX at concentration to 2.5×10^5 cells/mL. Two μL 5× compound solution and 8 μL cell suspension were added to each well of low-volume 384 white assay plate. After 30 min incubation at 37° C., 5 μL cAMP-d2 working solution and 5 μL anti-cAMP antibody-cryptate were added to each well, and incubate at room temperature for 1 hr. Series dilution of cAMP was used as standard. Human GLP-1 (7-37) was used as positive control and 10 nM human GLP-1 was set as 100% response. HTRF signals were read at 665 and 615 nm with EnVision plate reader and calculated cAMP concentration by interpolation to the standard curve. The EC50 value of the tested compounds was calculated by fitting the dose response curve using a 4-parameter non-linear regression routine and relative EC50 was presented in Table 29.

Chain of (Homo sapiens, UniProt P43220) (P43220 24-463): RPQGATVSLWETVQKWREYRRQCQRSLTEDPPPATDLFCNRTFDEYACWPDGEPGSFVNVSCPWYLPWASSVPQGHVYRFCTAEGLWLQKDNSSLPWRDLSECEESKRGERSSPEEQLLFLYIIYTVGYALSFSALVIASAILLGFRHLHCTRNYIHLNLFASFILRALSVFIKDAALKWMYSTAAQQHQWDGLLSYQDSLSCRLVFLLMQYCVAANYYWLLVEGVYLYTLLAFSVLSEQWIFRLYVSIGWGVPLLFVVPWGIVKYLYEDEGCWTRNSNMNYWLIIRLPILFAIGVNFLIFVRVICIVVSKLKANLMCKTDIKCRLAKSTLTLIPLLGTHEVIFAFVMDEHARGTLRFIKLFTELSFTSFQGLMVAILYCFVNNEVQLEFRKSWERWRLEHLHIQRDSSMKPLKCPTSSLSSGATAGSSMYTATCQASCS

SMILES | EC50
Cc1cc(-n2nc3c(c2-n2ccn(-c4ccc5c(cnn5C)c4F)c2=O)[C@H](C)N(C(=O)c2cn4cc([C@@H]5CCOC(C)(C)C5)ccc4c2[C@]2(c4noc(=O)[nH]4)C[C@@H]2C)CC3)cc(C)c1F (single isomer, unassigned) [Compound 6] | 20 to 100 nM
Cc1cc(-c2ccc3c(c2)cc(C(=O)N2CCn4nc(-c5ccc(F)cc5)c(-n5ccn(-c6ccc7c(cnn7C)c6F)c5=O)c4[C@@H]2C)n3C2(c3noc(=O)[nH]3)CC2)ccn1 (single isomer, unassigned) [Compound 7] | < 20 nM
C[C@H]1c2c(nn(-c3ccc(C(F)(F)F)cc3)c2-n2ccn(-c3ccc4c(cnn4C)c3F)c2=O)CCN1C(=O)c1cn2cc([C@@H]3CCOC(C)(C)C3)ccc2c1C1(c2noc(=O)[nH]2)CC1 (single isomer, unassigned) [Compound 8] | < 20 nM
Cc1cc(-n2nc3c(c2-n2ccn(-c4ccc5c(cnn5C)c4F)c2=O)[C@H](C)N(C(=O)c2cc4cc([C@H]5CCOC(C)(C)C5)ccn4c2C2(c4noc(=O)[nH]4)CC2)CC3)cc(C)c1F (single isomer, unassigned) [Compound 9] | 20 to 100 nM
C[C@H]1c2c(nn(-c3ccc(F)cc3)c2-n2ccn(-c3ccc4c(cnn4C)c3F)c2=O)CCN1C(=O)c1cn2cc([C@@H]3CCOC(C)(C)C3)ccc2c1C1(c2noc(=O)[nH]2)CC1 (single isomer, unassigned) [Compound 11] | < 20 nM
C[C@H]1c2c(nn(-c3ccc(F)c(Cl)c3)c2-n2ccn(-c3ccc4c(cnn4C)c3F)c2=O)CCN1C(=O)c1cn2cc([C@@H]3CCOC(C)(C)C3)ccc2c1C1(c2noc(=O)[nH]2)CC1 (single isomer, unassigned) [Compound 12] | < 20 nM
Cc1cc(-n2nc3c(c2-n2ccn(-c4ccc5c(cnn5C)c4F)c2=O)[C@H](C)N(C(=O)c2cn4cc([C@@H]5CCOC(C)(C)C5)ccc4c2C2(c4noc(=O)[nH]4)CC2)CC3)ccc1F (single isomer, unassigned) [Compound 13] | < 20 nM
C[C@H]1c2c(-n3ccn(-c4ccc5c(cnn5C)c4F)c3=O)c(-c3ccc(F)cc3)nn2CCN1C(=O)c1cn2cc([C@@H]3CCOC(C)(C)C3)ccc2c1C1(c2noc(=O)[nH]2)CC1 (single isomer, unassigned) [Compound 14] | < 20 nM
Cc1cc(-n2nc3c(c2-n2ccn(-c4ccn5cncc5c4)c2=O)[C@H](C)N(C(=O)c2cn4cc([C@H]5CCOC(C)(C)C5)ccc4c2C2(c4noc(=O)[nH]4)CC2)CC3)cc(C)c1F (single isomer, unassigned) [Compound 16] | 20 to 100 nM
Cc1cc(-n2nc3c(c2-n2ccn(-c4ccn5c(C)ncc5c4)c2=O)[C@H](C)N(C(=O)c2cn4cc([C@@H]5CCOC(C)(C)C5)ccc4c2C2(c4noc(=O)[nH]4)CC2)CC3)cc(C)c1F (single isomer, unassigned) [Compound 17] | < 20 nM
Cc1cc(-n2nc3c(c2-n2ccn(-c4ccn5c(C)ncc5c4)c2=O)[C@H](C)N(C(=O)c2cn4cc([C@H]5CCOC(C)(C)C5)ccc4c2C2(c4noc(=O)[nH]4)CC2)CC3)cc(C)c1F (single isomer, unassigned) [Compound 18] | < 20 nM
Cc1cc(-n2nc3c(c2-n2ccn(-c4ccc5c(cnn5C)c4F)c2=O)[C@H](C)N(C(=O)c2cn4cc([C@H]5CCOC(C)(C)C5)ccc4c2C2(c4noc(=O)[nH]4)CC2)CC3)cc(C)c1F (single isomer, unassigned) [Compound 20] | 20 to 100 nM
Cc1cc(-n2nc3c(c2-n2ccn(-c4ccc5c(cnn5C)c4F)c2=O)[C@H](C)N(C(=O)c2cn4cc([C@@H]5CCOC(C)(C)C5)ccc4c2Cc2noc(=O)[nH]2)CC3)cc(C)c1F (single isomer, unassigned) [Compound 21] | < 20 nM
Cc1cc(-n2nc3c(c2-n2ccn(-c4ccc5c(cnn5C)c4F)c2=O)[C@H](C)N(C(=O)c2cn4cc([C@H]5CCOC(C)(C)C5)ccc4c2Cc2noc(=O)[nH]2)CC3)cc(C)c1F (single isomer, unassigned) [Compound 22] | 20 to 100 nM
Cc1cc(-c2nn3c(c2-n2ccn(-c4ccc5c(cnn5C)c4F)c2=O)[C@@H](C)N(C(=O)c2cc4cc([C@@H]5CCOC(C)(C)C5)ccc4n2C2(c4noc(=O)[nH]4)CC2)CC3)cc(C)c1F (single isomer, unassigned) [Compound 24] | < 20 nM
Cc1cc(-c2nn3c(c2-n2ccn(-c4ccc5c(cnn5C)c4F)c2=O)[C@H](C)N(C(=O)c2cc4cc([C@@H]5CCOC(C)(C)C5)ccc4n2C2(c4noc(=O)[nH]4)CC2)CC3)cc(C)c1F (single isomer, unassigned) [Compound 25] | > 100 nM
Cc1cc(-c2nn3c(c2-n2ccn(-c4ccc5c(cnn5C)c4F)c2=O)[C@H](C)N(C(=O)c2cc4cc([C@@H]5CCOC(C)(C)C5)ccc4n2C2(c4noc(=O)[nH]4)CC2)CC3)ccc1F (single isomer, unassigned) [Compound 26] | < 20 nM
Cc1cc(-c2nn3c(c2-n2ccn(-c4ccc5c(cnn5C)c4F)c2=O)[C@@H](C)N(C(=O)c2cc4cc([C@@H]5CCOC(C)(C)C5)ccc4n2C2(c4noc(=O)[nH]4)CC2)CC3)ccc1F (single isomer, unassigned) [Compound 27] | > 100 nM

Other lines, results leading:

EC50 | SMILES
20 to 100 nM | COc1ccc(-c2nn3c(c2-n2ccn(-c4ccc5c(cnn5C)c4F)c2=O)C(C)N(C(=O)c2cc4cc([C@@H]5CCOC(C)(C)C5)ccc4n2C2(c4noc(=O)[nH]4)CC2)CC3)cc1 (single isomer, unassigned) [Compound 28]
20 to 100 nM | COCC12CCC(n3ccn(-c4c(-c5ccc(F)cc5)nn5c4[C@H](C)N(C(=O)c4cc6cc([C@@H]7CCOC(C)(C)C7)ccc6n4C4(c6noc(=O)[nH]6)CC4)CC5)c3=O)(CC1)CC2 (single isomer, unassigned) [Compound 29]
> 100 nM | C[C@H]1c2c(-n3ccn(-c4ccc5c(cnn5C)c4F)c3=O)c(-c3ccc(F)cc3)nn2CCN1C(=O)c1cc2cc([C@H]3CCOC(C)(C)C3)ccc2n1C1(c2noc(=O)[nH]2)CC1 (single isomer, unassigned) [Compound 31]
> 100 nM | C[C@@H]1c2c(-n3ccn(-c4ccc5c(cnn5C)c4F)c3=O)c(-c3ccc(F)cc3)nn2CCN1C(=O)c1cc2cc([C@H]3CCOC(C)(C)C3)ccc2n1C1(c2noc(=O)[nH]2)CC1 (single isomer, unassigned) [Compound 32]
< 20 nM | C[C@H]1c2c(-n3ccn(-c4ccc5c(cnn5C)c4F)c3=O)c(-c3ccc(F)cc3)nn2CCN1C(=O)c1cc2cc([C@@H]3CCOC(C)(C)C3)ccc2n1C1(c2noc(=O)[nH]2)CC1 (single isomer, unassigned) [Compound 33]
> 100 nM | C[C@@H]1c2c(-n3ccn(-c4ccc5c(cnn5C)c4F)c3=O)c(-c3ccc(F)cc3)nn2CCN1C(=O)c1cc2cc([C@@H]3CCOC(C)(C)C3)ccc2n1C1(c2noc(=O)[nH]2)CC1 (single isomer, unassigned) [Compound 34]
< 20 nM | C[C@H](c1ccc(F)cc1)n1nc2c(c1-n1ccn(-c3ccc4c(cnn4C)c3F)c1=O)[C@H](C)N(C(=O)c1cc3cc([C@@H]4CCOC(C)(C)C4)ccc3n1C1(c3noc(=O)[nH]3)CC1)CC2 (single isomer, unassigned) [Compound 38]
> 100 nM | C[C@H]1c2c(nn([C@@H](C)c3ccc(F)cc3)c2-n2ccn(-c3ccc4c(cnn4C)c3F)c2=O)CCN1C(=O)c1cc2cc([C@H]3CCOC(C)(C)C3)ccc2n1C1(c2noc(=O)[nH]2)CC1 (single isomer, unassigned) [Compound 39]
< 20 nM | C[C@H]1c2c(nn([C@@H](C)c3ccc(F)cc3)c2-n2ccn(-c3ccc4c(cnn4C)c3F)c2=O)CCN1C(=O)c1cc2cc([C@@H]3CCOC(C)(C)C3)ccc2n1C1(c2noc(=O)[nH]2)CC1 (single isomer, unassigned) [Compound 40]
> 100 nM | C[C@H](c1ccc(F)cc1)n1nc2c(c1-n1ccn(-c3ccc4c(cnn4C)c3F)c1=O)[C@H](C)N(C(=O)c1cc3cc([C@H]4CCOC(C)(C)C4)ccc3n1C1(c3noc(=O)[nH]3)CC1)CC2 (single isomer, unassigned) [Compound 41]
> 100 nM | C[C@H]1c2c(nn(C3CCC(F)(F)CC3)c2-n2ccn(-c3ccc4c(cnn4C)c3F)c2=O)CCN1C(=O)c1cc2cc([C@H]3CCOC(C)(C)C3)ccc2n1C1(c2noc(=O)[nH]2)CC1 (single isomer, unassigned) [Compound 43]
< 20 nM | C[C@H]1c2c(nn(C3CCC(F)(F)CC3)c2-n2ccn(-c3ccc4c(cnn4C)c3F)c2=O)CCN1C(=O)c1cc2cc([C@@H]3CCOC(C)(C)C3)ccc2n1C1(c2noc(=O)[nH]2)CC1 (single isomer, unassigned) [Compound 44]
> 100 nM | Cc1cc(-n2nc3c(c2-n2ccn(-c4ccc5c(cnn5C)c4F)c2=O)[C@H](C)N(C(=O)c2cc4cc([C@H]5CCOC(C)(C)C5)ccc4n2Cc2cnc(O)s2)CC3)cc(C)c1F (single isomer, unassigned) [Compound 45]
20 to 100 nM | Cc1cc(-n2nc3c(c2-n2ccn(-c4ccc5c(cnn5C)c4F)c2=O)[C@H](C)N(C(=O)c2cc4cc([C@@H]5CCOC(C)(C)C5)ccc4n2Cc2cnc(O)s2)CC3)cc(C)c1F (single isomer, unassigned) [Compound 46]
< 20 nM | C[C@@H]1c2c(-n3ccn(-c4ccc5c(cnn5C)c4F)c3=O)c(-c3ccc(F)c(Cl)c3)nn2CCN1C(=O)c1cc2cc([C@@H]3CCOC(C)(C)C3)ccc2n1C1(c2noc(=O)[nH]2)CC1 (single isomer, unassigned) [Compound 49]
> 100 nM | C[C@H]1c2c(-n3ccn(-c4ccc5c(cnn5C)c4F)c3=O)c(-c3ccc(F)c(Cl)c3)nn2CCN1C(=O)c1cc2cc([C@@H]3CCOC(C)(C)C3)ccc2n1C1(c2noc(=O)[nH]2)CC1 (single isomer, unassigned) [Compound 50]

Source: patent publication US12037339B2, “Substituted imidazoles as GLP-1 receptor agonists” (Eccogene Inc., priority 2020, dated 2024)
